Measured values from US10047105B2, “Gyrase inhibitors” (Merck Sharp & Dohme Corp., priority 2009, dated 2018).
≈ marks a conversion by molar mass, not a printed value.

Key:
[1] = tested on: S. pneumoniae ATCC 51916; assay: MIC, S. pneumoniae; format: cell-based
[2] = tested on: S. aureus ATCC 13709; assay: MIC, antibacterial potency, S. aureus; format: cell-based
[3] = S. pneumoniae (Spn52), in µg/mL

| SMILES | MIC Spn52 [1, 3] | MIC, SA ([2]; S. aureus (SA), in µg/mL) | MIC Spn52 ([1]; S. pneumoniae) [µg/mL] | MIC, SA ([2]; S. aureus) [µg/mL] |
| --- | --- | --- | --- | --- |
| CCc1[nH]c2nc(Sc3cnc4nccnc4c3)nc(N3CCC(N4CCN(C)CC4)C3)c2c1Cl.O=C(O)C(F)(F)F.O=C(O)C(F)(F)F (centres unmarked) [700,700] | – | – | 8 | 4 |
| CCOc1nc(Nc2cncnc2)nc2[nH]c(CC)c(Br)c12.O=C(O)C(F)(F)F [700,701] | – | – | 8 | 1 |
| CCOc1nc(Nc2cncnc2)nc2[nH]c(CC)c(Cl)c12.O=C(O)C(F)(F)F [700,702] | – | – | 16 | 2 |
| CCc1[nH]c2nc(Sc3ccc4cc(C(=O)O)cnc4c3)nc(N3CC[C@@H](N)C3)c2c1Cl [700,705] | – | – | > 64 | > 64 |
| CCc1[nH]c2nc(Sc3cnc4cccnc4c3)nc(N3CC(C4(N)CC4)C3)c2c1Cl [700,706] | – | – | 2 (≈ 4.42 µM) | 1 (≈ 2.21 µM) |
| CCc1[nH]c2nc(Sc3cnc4nccnc4c3)nc(N3CC(C4(N)CC4)C3)c2c1Cl [700,707] | – | – | 4 (≈ 8.83 µM) | 2 (≈ 4.42 µM) |
| CCc1[nH]c2nc(Sc3ccc4nc(C)cc(C(=O)O)c4c3)nc(N3CC[C@@H](N)C3)c2c1Cl [700,708, (R)-6-(4-(3-aminopyrrolidin-1-yl)-5-chloro-6-ethyl-7H-pyrrolo[2,3-d]pyrimidin-2-ylthio)-2-methylquinoline-4-carboxylic acid] | – | – | > 64 | 32 (≈ 66.3 µM) |
| CCc1[nH]c2nc(Sc3ccc4nc[nH]c(=O)c4c3)nc(N3CC[C@@H](N)C3)c2c1Cl [700,710] | – | – | 8 (≈ 18.1 µM) | 1 (≈ 2.26 µM) |
| CCc1[nH]c2nc(Sc3ccc4c(c3)C(=O)NC4)nc(N3CC[C@@H](N)C3)c2c1Cl [700,711] | – | – | 8 (≈ 18.7 µM) | 1 (≈ 2.33 µM) |
| CCc1[nH]c2nc(Sc3cnc4ncc(=O)[nH]c4c3)nc(N3CC[C@@H](N)C3)c2c1Cl [700,712] | – | – | > 64 | 8 (≈ 18.1 µM) |
| CCc1[nH]c2nc(Sc3cnc4cccnc4c3)nc(N3CC(NC)C3)c2c1Cl [700,713] | – | – | 2 (≈ 4.7 µM) | 1 (≈ 2.35 µM) |
| CCc1[nH]c2nc(Sc3cnc4nccnc4c3)nc(N3CC(NC)C3)c2c1Cl [700,714] | – | – | 4 (≈ 9.37 µM) | 2 (≈ 4.68 µM) |
| CCc1[nH]c2nc(Sc3ccc4cc(C#N)cnc4c3)nc(N3CC[C@@H](N)C3)c2c1Cl [700,715] | – | – | 1 (≈ 2.22 µM) | ≤ 0.5 |
| CCc1[nH]c2nc(Sc3ccc4cc(C#N)cnc4c3)nc(N3CC(CN)C3)c2c1Cl [700,716] | – | – | 2 (≈ 4.44 µM) | 1 (≈ 2.22 µM) |
| CCc1[nH]c2nc(Sc3ccc4c(N)nc(C)nc4c3)nc(N3CC[C@@H](N)C3)c2c1Cl [700,717] | – | – | 4 (≈ 8.79 µM) | 2 (≈ 4.4 µM) |
| CCc1[nH]c2nc(Sc3cnc4c(C#N)cnn4c3)nc(N3CC[C@@H](N)C3)c2c1Cl [700,718] | – | – | 8 (≈ 18.2 µM) | 4 (≈ 9.09 µM) |
| CCc1[nH]c2nc(Sc3ccc4ccc(C(=O)O)nc4c3)nc(N3CC[C@@H](N)C3)c2c1Cl [700,719] | – | – | > 64 | 2 (≈ 4.26 µM) |
| CCc1[nH]c2nc(Sc3cnc4nccnc4c3)nc(N3CCC(CN)C3)c2c1Cl.O=C(O)C(F)(F)F (centres unmarked) [700,720] | – | – | 16 | 8 |
| CCc1[nH]c2nc(Sc3cnc4nccnc4c3)nc(N3CC4CCCNC4C3)c2c1Cl.O=C(O)C(F)(F)F (centres unmarked) [700,721] | – | – | 32 | 32 |
| CCc1[nH]c2nc(Oc3cncnc3)nc(Oc3cncc(C#N)c3)c2c1Cl.O=C(O)C(F)(F)F [700,722] | – | – | 8 | 4 |

| SMILES | MIC Spn52 [1, 3] | MIC, SA ([2]; S. aureus (SA), in µg/mL) | MIC Spn52 ([1]; S. pneumoniae) [µg/mL] | MIC, SA ([2]; S. aureus) [µg/mL] |
| --- | --- | --- | --- | --- |
| CCc1[nH]c2nc(Oc3cncc(C#N)c3)nc(Oc3cncc(C#N)c3)c2c1Cl.O=C(O)C(F)(F)F [700,723] | – | – | 2 | ≤ 0.5 |
| CCc1[nH]c2nc(Oc3cncc(C#N)c3)nc(Oc3cncc(C#N)c3)c2c1Br.O=C(O)C(F)(F)F [700,724] | – | – | ≤ 0.5 | ≤ 0.5 |
| CCc1[nH]c2nc(Sc3cnc4nccnc4c3)nc(N3CC4[C@H](C3)[C@@]4(N)C(N)=O)c2c1Cl.O=C(O)C(F)(F)F.O=C(O)C(F)(F)F (some centres unmarked) [700,781] | – | – | 1 | ≤ 0.5 |
| CCc1[nH]c2nc(Sc3cncnc3)nc(N3CC[C@@H](N)C3)c2c1Cl [700,783] | – | – | 16 (≈ 42.6 µM) | 8 (≈ 21.3 µM) |
| CCc1[nH]c2nc(Sc3cncnc3)nc(N3CC4C(N)C4C3)c2c1Cl (centres unmarked) [700,784] | – | – | 8 (≈ 20.6 µM) | 2 (≈ 5.16 µM) |
| CCc1[nH]c2nc(Sc3cncnc3)nc(N3CC4CNC4C3)c2c1Cl (centres unmarked) [700,785] | – | – | 64 (≈ 165 µM) | 16 (≈ 41.2 µM) |
| CCc1[nH]c2nc(Sc3cnc(N)nc3)nc(N3CC4CNC4C3)c2c1Cl (centres unmarked) [700,790] | 64 | 16 | – | – |
| CCc1[nH]c2nc(Sc3cnc4nccnc4c3)nc(N3CCNCC3)c2c1Cl.O=C(O)C(F)(F)F [700,791] | 16 | 64 | – | – |
| CCc1[nH]c2nc(Sc3cnc4nccnc4c3)nc(N3CCC(n4c(=O)[nH]c5cc(Cl)ccc54)CC3)c2c1Cl.O=C(O)C(F)(F)F [700,792] | >64 | >64 | – | – |
| CCc1[nH]c2nc(Oc3cncc(C#N)c3)nc(Oc3cccc(C#N)c3)c2c1Br.O=C(O)C(F)(F)F [700,793] | <=0.5 | <=0.5 | – | – |
| CCc1[nH]c2nc(Sc3cnc4c(c3)OCCN4C)nc(N3CC(N)C3)c2c1Cl.O=C(O)C(F)(F)F [700,794] | 32 | 16 | – | – |
| CCc1[nH]c2nc(Sc3cnc4cccnc4c3)nc(N3CC4CNC4C3)c2c1Cl.O=C(O)C(F)(F)F.O=C(O)C(F)(F)F (centres unmarked) [700,796] | 1 | <=0.5 | – | – |
| CCc1[nH]c2nc(Sc3cnc4c(c3)ncc(=O)n4CCCN3CCCC3=O)nc(N3CC[C@@H](N)C3)c2c1Cl [700,797] | >32 | >32 | – | – |
| CCc1[nH]c2nc(Sc3cnc4c(c3)ncc(=O)n4CCO)nc(N3CC[C@@H](N)C3)c2c1Cl [700,798] | 32 | 16 | – | – |
| CCc1[nH]c2nc(Sc3cnc4c(c3)ncc(=O)n4C3CCNCC3)nc(N3CC[C@@H](N)C3)c2c1Cl [700,799] | >64 | >64 | – | – |
| CCc1[nH]c2nc(Sc3ccc4ccc(C(=O)O)nc4c3)nc(N3CC(CNC(=O)c4cn(C)nc4C(F)(F)F)C3)c2c1Cl [700,805] | 2 | <=0.5 | – | – |
| CCc1[nH]c2nc(Oc3cncc(C#N)c3)nc(Oc3ccc(OC)c(OC)c3)c2c1Cl [700,813] | >64 | >64 | – | – |
| CCc1[nH]c2nc(Sc3cnc4nccnc4c3)nc(N3C[C@@H]4[C@H](C3)[C@H]4N(Cc3ccccc3)Cc3ccccc3)c2c1Cl [700,822] | >64 | >64 | – | – |
| CCc1[nH]c2nc(Sc3cnc4cccnc4c3)nc(N3C[C@@H]4[C@H](C3)[C@H]4N(Cc3ccccc3)Cc3ccccc3)c2c1Cl [700,823] | 64 | 64 | – | – |

Now from value to compound, other results behind:

| MIC Spn52 [1, 3] | MIC, SA ([2]; S. aureus (SA), in µg/mL) | SMILES | MIC Spn52 ([1]; S. pneumoniae) [µg/mL] | MIC, SA ([2]; S. aureus) [µg/mL] |
| --- | --- | --- | --- | --- |
| 32 | 16 | CCc1[nH]c2nc(Sc3cncnc3)nc(N3CC(CN)C3)c2c1Cl [700,786] | – | – |
| 16 | 8 | CCc1[nH]c2nc(Sc3cnc(N)nc3)nc(N3CC[C@@H](N)C3)c2c1Cl [700,788] | – | – |
| 8 | 2 | CCc1[nH]c2nc(Sc3cnc(N)nc3)nc(N3CC4C(N)C4C3)c2c1Cl (centres unmarked) [700,789] | – | – |
| <=0.5 | <=0.5 | CCc1[nH]c2nc(Sc3cnc4cccnc4c3)nc(N3CC4CCNC4C3)c2c1Cl (centres unmarked) [700,801] | – | – |
| 16 | 4 | CCc1[nH]c2nc(Sc3cncnc3)nc(N3CC4CCNC4C3)c2c1Cl (centres unmarked) [700,802] | – | – |
| 16 | 8 | CCc1[nH]c2nc(Sc3cnc(N)nc3)nc(N3CC4CCNC4C3)c2c1Cl (centres unmarked) [700,803] | – | – |
| 16 | 4 | CCc1[nH]c2nc(Sc3ccc4ccc(C(=O)O)nc4c3)nc(N3CC(CNC(=O)C4CC4)C3)c2c1Cl [700,804] | – | – |
| 16 | 4 | CCc1[nH]c2nc(Sc3ccc4ccc(C(=O)O)nc4c3)nc(N3CC(CNS(C)(=O)=O)C3)c2c1Cl [700,806] | – | – |
| 8 | 2 | CCc1[nH]c2nc(Sc3ccc4ccc(C(=O)O)nc4c3)nc(N3CC(NC(=O)C4CC4)C3)c2c1Cl [700,807] | – | – |
| 64 | 8 | CCc1[nH]c2nc(Sc3ccc4ccc(C(=O)O)nc4c3)nc(N3CC(NS(C)(=O)=O)C3)c2c1Cl [700,808] | – | – |
| 4 | <=0.5 | C#CCOC(=O)NC1CN(c2nc(Sc3ccc4ccc(C(=O)O)nc4c3)nc3[nH]c(CC)c(Cl)c23)C1 [700,809] | – | – |
| 4 | 4 | CCc1[nH]c2nc(Sc3cnc4c(N)nc(CN5CCOCC5)nc4c3)nc(N3CC[C@@H](N)C3)c2c1Cl [700,812] | – | – |
| 4 | 2 | CCc1[nH]c2nc(Sc3cnc4nccnc4c3)nc(N3CCCC(CO)C3)c2c1Cl (centres unmarked) [700,814] | – | – |
| 2 | 2 | CCc1[nH]c2nc(Sc3cnc4nccnc4c3)nc(N3CCC(CN4CCCC4=O)CC3)c2c1Cl [700,815] | – | – |
| <=0.5 | <=0.5 | CCc1[nH]c2nc(Sc3cnc4nccnc4c3)nc(N3C[C@@H]4[C@@H](N)[C@@H]4C3)c2c1Cl [700,816] | – | – |
| <=0.5 | <=0.5 | CCc1[nH]c2nc(Sc3cnc4cccnc4c3)nc(N3C[C@@H]4[C@@H](N)[C@@H]4C3)c2c1Cl [700,817] | – | – |
| 8 | 2 | CCc1[nH]c2nc(Sc3ccc(C#N)nc3)nc(N3CC[C@@H](N)C3)c2c1Cl [700,818] | – | – |
| 32 | 16 | CCc1[nH]c2nc(Sc3cncc(N)c3)nc(N3CC[C@@H](N)C3)c2c1Cl [700,820] | – | – |
| >64 | >64 | CCc1[nH]c2nc(Sc3cncc(O)c3)nc(N3CC[C@@H](N)C3)c2c1Cl [700,821] | – | – |
| 8 | 2 | CCc1[nH]c2nc(Sc3cncc(C#N)c3)nc(N3CC[C@@H](N)C3)c2c1Cl [700,824] | – | – |
| >64 | 64 | CCc1[nH]c2nc(Sc3ccc4c(N5CC[C@@H](N)C5)cc(C(=O)O)nc4c3)nc(N3CC[C@@H](N)C3)c2c1Cl [700,825] | – | – |
| 32 | 8 | CCc1[nH]c2nc(Sc3cnc4c(N)nc(CN5CCNCC5)nc4c3)nc(N3CC[C@@H](N)C3)c2c1Cl [700,826] | – | – |
